Viscosity data for 21 compounds are collected here from the CheMixHub viscosity set.

“And” between values parts separate entries of the source, which are not always exact repeats. Identical values can stand only once. ± gives the uncertainty stated by the source.

By viscosity is commonly meant the resistance of a fluid to flow. Read a low viscosity as easy flow.

As to `C=CC#N`, the viscosity by setting is: (293.15 K, 101 kPa) 0.362 ± 0.01 mPa·s; (298.15 K, 101 kPa) 0.342 ± 0.009 mPa·s; (298.15 K, 101.33 kPa) 0.339 ± 0.005 mPa·s; (303.15 K, 101 kPa) 0.325 ± 0.009 mPa·s; (303.15 K, 101.3 kPa) 0.3111 ± 0.003 mPa·s and 0.3111 ± 0.0049 mPa·s; (303.15 K, 101.33 kPa) 0.324 ± 0.005 mPa·s and 0.324 ± 0.01 mPa·s and 0.326 ± 0.005 mPa·s. Also, the viscosity (307.4 K, 101.33 kPa) is 0.76 ± 0.01 mPa·s and 0.53 ± 0.005 mPa·s and 0.584 ± 0.005 mPa·s; the viscosity (308.15 K, 101 kPa) came out at 0.3296 ± 0.0037 mPa·s; the viscosity (313.15 K, 101 kPa) is 0.305 ± 0.008 mPa·s; the viscosity (323.15 K, 101 kPa) worked out at 0.287 ± 0.008 mPa·s.
Consider `CC(C)(N)CO`, for which the viscosity was 132.3 ± 53 mPa·s (298.15 K, 100 kPa); 98.48 ± 39 mPa·s (303.15 K, 100 kPa); 89 ± 14 mPa·s and 99.48 ± 10 mPa·s (303.15 K, 101 kPa); 69.98 ± 28 mPa·s (308.15 K, 100 kPa); 60.8 ± 9.9 mPa·s (308.15 K, 101 kPa); 46.99 ± 19 mPa·s (313.15 K, 100 kPa). In addition, the viscosity is, setting by setting: (313.15 K, 101 kPa) 43.7 ± 7.1 mPa·s and 47.25 ± 4.7 mPa·s; (318.15 K, 100 kPa) 32.2 ± 13 mPa·s; (318.15 K, 101 kPa) 32.2 ± 5.2 mPa·s; (323.15 K, 100 kPa) 24.45 ± 9.8 mPa·s; (323.15 K, 101 kPa) 23.05 ± 3.7 mPa·s and 24.33 ± 2.4 mPa·s.
Consider `CC(CC(C)(C)C)CC(C)(C)C`, for which the viscosity turned out to be 1.32 ± 0.02 mPa·s (293.15 K, 102 kPa); 1.217 ± 0.018 mPa·s (298.15 K, 101.33 kPa); 0.956 ± 0.021 mPa·s (313.15 K, 102 kPa); 0.828 ± 0.021 mPa·s (323.15 K, 102 kPa).
For the compound `CC(CC(C)(C)C)CP(=O)([O-])CC(C)CC(C)(C)C.CCCCCCCCCCCCCC[P+](CCCCCC)(CCCCCC)CCCCCC`, the viscosity (303.15 K, 101 kPa) is reported as 757 ± 46 mPa·s; the viscosity (313.15 K, 101 kPa) stood at 439 ± 23 mPa·s; the viscosity (323.15 K, 101 kPa) is 264 ± 12 mPa·s.
For the compound `CC1CCC(O)CC1` (stereo unspecified), the viscosity (293.15 K, 101 kPa) was 30.4 ± 0.9 mPa·s.
`CCC(C)(C)O`: the viscosity (298.15 K, 101 kPa) is 3.506 ± 0.091 mPa·s and 3.532 ± 0.032 mPa·s and 4.413 ± 0.038 mPa·s; the viscosity (298.15 K, 101.3 kPa) was determined as 3.52 ± 0.096 mPa·s; the viscosity (303.15 K, 101.3 kPa) was found to be 2.87 ± 0.079 mPa·s; the viscosity (303.15 K, 101.33 kPa) is 2.854 ± 0.034 mPa·s; the viscosity (308.15 K, 101.3 kPa) is recorded as 2.37 ± 0.065 mPa·s; the viscosity (313.15 K, 101.3 kPa) is listed as 1.96 ± 0.054 mPa·s. In addition, the viscosity by setting is: (313.15 K, 101.33 kPa) 1.976 ± 0.023 mPa·s; (318.15 K, 101 kPa) 1.681 ± 0.044 mPa·s; (323.15 K, 101.33 kPa) 1.416 ± 0.017 mPa·s.
As for `CCCCC(C)CC` (stereo unspecified), the viscosity (293.15 K, 100 kPa) was determined as 0.512 ± 0.011 mPa·s; the viscosity (298.15 K, 100 kPa) was found to be 0.485 ± 0.011 mPa·s; the viscosity (303.15 K, 100 kPa) is recorded as 0.462 ± 0.01 mPa·s; the viscosity (308.15 K, 100 kPa) is 0.44 ± 0.01 mPa·s; the viscosity (313.15 K, 100 kPa) is 0.422 ± 0.009 mPa·s.
Turning to `CCCCC(C)O` (stereo unspecified), the viscosity was 4.047 ± 0.037 mPa·s and 4.047 ± 0.032 mPa·s (298.15 K, 101.33 kPa); 3.29 ± 0.17 mPa·s (303.15 K, 100 kPa); 2.71 ± 0.14 mPa·s (308.15 K, 100 kPa); 2.28 ± 0.12 mPa·s (313.15 K, 100 kPa); 1.93 ± 0.1 mPa·s (318.15 K, 100 kPa).
Consider `CCCCCCCCCCCCCCCCCC[P+](CCCC)(CCCC)CCCC.N#Cc1ccc[n-]1`, for which the viscosity turned out to be 742 ± 110 mPa·s (293.15 K, 100 kPa); 519 ± 77 mPa·s (298.15 K, 100 kPa); 379 ± 55 mPa·s (303.15 K, 100 kPa); 208 ± 30 mPa·s (313.15 K, 100 kPa).
As to `CCCCCCc1ccccc1`, the viscosity (303.15 K, 102 kPa) turned out to be 1.4 ± 0.01 mPa·s.
On to `CCCCN(CCCC)CCCC`, for which the viscosity (293.15 K, 101.33 kPa) came out at 1.45 ± 0.016 mPa·s; the viscosity (298.15 K, 101 kPa) amounted to 1.273 ± 0.019 mPa·s; the viscosity (298.15 K, 101.33 kPa) turned out to be 1.28 ± 0.014 mPa·s; the viscosity (303.15 K, 100 kPa) was 1.14 ± 0.03 mPa·s and 1 mPa·s; the viscosity (303.15 K, 101 kPa) is 1.157 ± 0.018 mPa·s and 1.155 ± 0.0095 mPa·s; the viscosity (308.15 K, 100 kPa) stood at 1.09 ± 0.03 mPa·s. The viscosity reads like this: (308.15 K, 101 kPa) 1.064 ± 0.018 mPa·s and 1.069 ± 0.013 mPa·s; (308.15 K, 101.33 kPa) 1.07 ± 0.011 mPa·s; (313.15 K, 101 kPa) 0.9845 ± 0.012 mPa·s and 1 ± 0.0086 mPa·s; (313.15 K, 101.3 kPa) 0.9974 ± 0.012 mPa·s; (313.15 K, 101.33 kPa) 0.99 ± 0.01 mPa·s; (318.15 K, 101 kPa) 0.9086 ± 0.011 mPa·s. Also, the viscosity amounted to 0.8422 ± 0.011 mPa·s (323.15 K, 101 kPa) and 0.863 ± 0.009 mPa·s (323.15 K, 101.33 kPa).
In the case of `CCCCOC(=O)c1ccccc1C(=O)OCCCC`, the viscosity (303.15 K, 101.33 kPa) stood at 13.33 ± 0.065 mPa·s.
For `CCCC[P+](CC)(CC)CC.N#Cc1ccc[n-]1`, the viscosity runs as follows: (293.15 K, 100 kPa) 187 ± 27 mPa·s; (298.15 K, 100 kPa) 137 ± 19 mPa·s; (303.15 K, 100 kPa) 104 ± 15 mPa·s; (313.15 K, 100 kPa) 62 ± 9 mPa·s.
For the compound `CC[N+](C)(CC)CCOC.O=S(=O)([N-]S(=O)(=O)C(F)(F)F)C(F)(F)F`, the viscosity was 162.2 ± 6.7 mPa·s (293.15 K, 101 kPa); 119.2 ± 4 mPa·s (298.15 K, 101 kPa); 89.7 ± 2.4 mPa·s (303.15 K, 101 kPa); 67.72 ± 1.5 mPa·s (308.15 K, 101 kPa); 53.02 ± 1.1 mPa·s (313.15 K, 101 kPa); 40.98 ± 0.87 mPa·s (318.15 K, 101 kPa). For the setting “323.15 K, 101 kPa”, this compound gave a viscosity of 33.06 ± 0.7 mPa·s.
Turning to `CC[n+]1cc[nH]c1.O=S(=O)([N-]S(=O)(=O)C(F)(F)F)C(F)(F)F`, under “297.55 K, 101 kPa”, the viscosity is given as 57.1 ± 1.9 mPa·s.
As for `CN(C)c1ccccc1`, the viscosity reads like this: (293.15 K, 100 kPa) 1.415 ± 0.063 mPa·s; (298 K, 101 kPa) 1.283 ± 0.033 mPa·s; (298 K, 101.3 kPa) 1.282 ± 0.035 mPa·s; (298.15 K, 100 kPa) 1.302 ± 0.058 mPa·s; (303 K, 101 kPa) 1.18 ± 0.031 mPa·s; (303 K, 101.3 kPa) 1.177 ± 0.032 mPa·s. Moreover, the viscosity by setting is: (303.15 K, 100 kPa) 1.206 ± 0.054 mPa·s; (303.15 K, 101 kPa) 1.18 ± 0.03 mPa·s and 1.177 ± 0.025 mPa·s and 1.203 ± 0.032 mPa·s; (308 K, 101 kPa) 1.096 ± 0.029 mPa·s; (308 K, 101.3 kPa) 1.1 ± 0.03 mPa·s; (308.15 K, 100 kPa) 1.123 ± 0.05 mPa·s; (313 K, 101 kPa) 1.02 ± 0.027 mPa·s. Besides, the viscosity runs as follows: (313 K, 101.3 kPa) 1.02 ± 0.028 mPa·s; (313.15 K, 100 kPa) 1.056 ± 0.047 mPa·s; (313.35 K, 101 kPa) 1.021 ± 0.01 mPa·s; (318 K, 101 kPa) 0.968 ± 0.025 mPa·s; (318 K, 101.3 kPa) 0.967 ± 0.027 mPa·s; (318.15 K, 100 kPa) 0.9805 ± 0.044 mPa·s. Also, the viscosity is, setting by setting: (318.15 K, 101 kPa) 0.931 ± 0.02 mPa·s and 0.8294 ± 0.083 mPa·s and 0.9484 ± 0.025 mPa·s; (323.15 K, 100 kPa) 0.9197 ± 0.041 mPa·s; (323.15 K, 101 kPa) 0.854 ± 0.018 mPa·s.
`COC(C)OC`: for the setting “298.15 K, 101 kPa”, the viscosity turned out to be 4.04 mPa·s.
For the setting “293.15 K, 101 kPa”, `Cc1ccc(C(C)C)cc1` yielded a viscosity of 0.826 ± 0.016 mPa·s.
`Cn1ccnc1`: the viscosity reads like this: (298.15 K, 100 kPa) 1.778 ± 0.18 mPa·s and 1.778 ± 0.073 mPa·s; (298.15 K, 101 kPa) 1.68 ± 0.1 mPa·s; (308.15 K, 100 kPa) 1.482 ± 0.15 mPa·s and 1.482 ± 0.061 mPa·s; (308.15 K, 101 kPa) 1.382 ± 0.012 mPa·s and 1.415 ± 0.086 mPa·s; (318.15 K, 100 kPa) 1.267 ± 0.13 mPa·s and 1.267 ± 0.052 mPa·s; (318.15 K, 101 kPa) 1.213 ± 0.073 mPa·s.
As to `FC(F)(F)c1ccccc1`, the viscosity is given as 0.53 ± 0.03 mPa·s (298.15 K, 101 kPa); 0.5524 ± 0.0057 mPa·s (298.15 K, 101.33 kPa); 0.46 ± 0.02 mPa·s (323.15 K, 101 kPa).
With `O=C1CCCCCO1`, the viscosity (303.15 K, 101 kPa) was 4.885 ± 0.32 mPa·s; the viscosity (308.15 K, 101 kPa) worked out at 4.324 ± 0.28 mPa·s; the viscosity (313.15 K, 101 kPa) is given as 3.818 ± 0.25 mPa·s; the viscosity (318.15 K, 101 kPa) came to 3.42 ± 0.23 mPa·s.
